{"source": "patent US6036957A", "about": "“Suppression of T-cell proliferation using peptide fragments of myelin basic protein” (Autoimmune, Inc., priority 1995, dated 2000)", "key": {"[1]": {"test_system": "MBP reactive T-cell lines", "assay": "Reactivity of MBP-reactive T-cell lines to overlapping human MBP peptides (proliferation assay)", "format": "cell-based", "settings": "for mean frequency of T-cell lines selectively reactive to the peptide, MS vs controls (FIG. 1): result in words", "procedure": "A rapid T-cell cloning technique was used to examine whether there were immunodominant epitopes on human MBP reactive with Class II MHC phenotypes and the frequency of such reactivity. A total of 15,824 short term T-cell lines were generated from 51 human subjects by culturing peripheral blood mononuclear cells ([…]) with purified MBP (100 μg) followed 3 days later, and then every 3-4 days, by the addition of interleukin-2 (IL-2; from ABI, Columbia, Md.) and 2 units recombinant interleukin-4 (IL-4; Genzyme, Boston, Mass.). On Day 13 of culture, an aliquot from each line was tested for reactivity to MBP using the following proliferation assay: T-cell clones (1×10^5 cells/well) were plated in triplicate and cocultured with appropriate stimuli (i.e. 100 μg whole MBP or 5% IL-2) for 72 hours at 37° C., 90% humidity, 5% CO2, in 96 well flat bottomed microtiter plates (Costar). The cells were pulsed with 2 μCi [^3 H]TdR (2 Ci/mmole, New England Nuclear, Boston, Mass.) for the last 18 hours of culture. APCs were prepared by pulsing human Epstein-Barrvirus transformed human B-cells (the virus being commercially available from ATCC) or L-cells which are mouse cells transfected with human DR2 (L-cells are commercially available from ATCC under accession No. ATCC-CCL1 and can be transfected according to the method of Wilkinson, D. et al, J. Exp. Med., 1988, 167:1442-1458 using DNA encoding DR2 as per Wu, S. et al J. Immunol., 1987, 138:2953). B-cells or L-cells were used at 1×10^6 cells/well in complete media either in the presence or absence of 40 pM MBP or phospholipid protein (PLP) for 2 hours at 37° C., washing twice with 4° C. Hanks (Whittaker), followed by irradiation with 5000 rad. at 4° C. To stimulate T-cells without accessory APCs, 2 μM of MBP, PLP, or the appropriate fragment was added directly to the cells for the duration of the culture: 48 hours, followed by pulsing […] and then harvesting. Ten thousand APC's were used for 100,000 T-cell clones.\nT-cell lines shown to be reactive to MBP or PLP were then tested using the same technique for reactivity to overlapping oligopeptide 20-mers encompassing the human MBP sequence as shown in Table 1 above. […]\nOf a total of 302 cell lines from patients with MS that could be expanded and confirmed to react with MBP on repeated analysis, 140 (46.4%) reacted with MBP residues 84-102; and approximately 70-80% reacted with either MBP residues 84-102 or 143-168. […] The actual frequency of T-cells derived from the peripheral blood that reacted with each MBP peptide for each individual subject was calculated. […]"}, "actively induced EAE": {"test_system": "actively induced EAE", "assay": "Suppression of actively induced EAE (immunization with MBP/CFA)", "format": "in vivo, Lewis rats", "settings": "FIG. 7, words"}, "[2]": {"test_system": "short term T-cell lines generated from peripheral blood mononuclear cells", "assay": "Frequency of MBP- and PLP-reactive short term T-cell lines (proliferation assay)", "format": "cell-based, human", "settings": "mean +/-SEM", "procedure": "A rapid T-cell cloning technique was used to examine whether there were immunodominant epitopes on human MBP reactive with Class II MHC phenotypes and the frequency of such reactivity. A total of 15,824 short term T-cell lines were generated from 51 human subjects by culturing peripheral blood mononuclear cells ([…]) with purified MBP (100 μg) followed 3 days later, and then every 3-4 days, by the addition of interleukin-2 (IL-2; from ABI, Columbia, Md.) and 2 units recombinant interleukin-4 (IL-4; Genzyme, Boston, Mass.). On Day 13 of culture, an aliquot from each line was tested for reactivity to MBP using the following proliferation assay: T-cell clones (1×10^5 cells/well) were plated in triplicate and cocultured with appropriate stimuli (i.e. 100 μg whole MBP or 5% IL-2) for 72 hours at 37° C., 90% humidity, 5% CO2, in 96 well flat bottomed microtiter plates (Costar). […]\nSubjects with other central nervous system diseases had the following diagnoses: 1-3 weeks after either cerebrovascular accident (n=4), brain trauma with CNS hemorrhage (n=4), or metastatic brain tumor (n=2). […] In addition, the frequency of MBP and PLP-reactive lines was calculated separately for each subject by dividing the number of MBP-reactive lines by the total number of lines generated and the mean values +/-SEM are given. […]"}}}
{"molecule": "HHPARTAHYGSLPQKSEGRT [61-82]", "values": [{"measurement": "mean frequency of T-cell lines selectively reactive to the peptide, MS vs controls (FIG. 1)", "setting": "[1]", "value": "Significant but less striking increases in reactivity"}]}
{"molecule": "guinea pig MBP peptide 131-150: Control guinea pig MBP peptide 131-150 (DYKSKGFKGAHDAQGTLSKI; UniProt P25188 131-150, looked up, fragment)", "values": [{"measurement": "suppression of EAE via IV tolerization", "setting": "actively induced EAE; administered intravenously prior to immunization", "value": "did not suppress"}, {"measurement": "suppression of EAE via oral tolerization", "setting": "actively induced EAE; administered orally prior to immunization", "value": "did not suppress"}]}
{"molecule": "FKGVDAQGTLSKIFKLGGRD [143-168, human MBP amino acid residues 143-168]", "values": [{"measurement": "fraction of MBP reactive T-cell lines that recognized either the 84-102 or the 143-168 peptide", "setting": "[1]; control groups, 100 lines", "value": "about 34%"}, {"measurement": "fraction of MBP-reactive cell lines that reacted with either MBP residues 84-102 or 143-168", "setting": "[1]; patients with MS, 302 cell lines", "value": "70-80%"}, {"measurement": "mean frequency of T-cell lines selectively reactive to the peptide, MS vs controls (FIG. 1)", "setting": "[1]", "value": "both MS and control subjects showed high frequencies"}]}
{"molecule": "PLP: proteolipid protein, myelin autoantigen (protein, UniProt P60201 2-277, looked up) Myelin proteolipid protein: GLLECCARCLVGAPFASLVATGLCFFGVALFCGCGHEALTGTEKLIETYFSKNYQDYEYLINVIHAFQYVIYGTASFFFLYGALLLAEGFYTTGAVRQIFGDYKTTICGKGLSATVTGGQKGRGSRGQHQAHSLERVCHCLGKWLGHPDKFVGITYALTVVWLLVFACSAVPVYIYFNTWTTCQSIAFPSKTSASIGSLCADARMYGVLPWNAFPGKVCGSNLLSICKTAEFQMTFHLFIAAFVGAAATLVSLLTFMIAATYNFAVLKLMGRGTKF", "values": [{"measurement": "MEAN FREQUENCY OF Ag REACTIVE LINES", "setting": "[2]; MS patients (n = 23)", "value": "3.34 ± 1.56"}, {"measurement": "MEAN FREQUENCY OF Ag REACTIVE LINES", "setting": "[2]; other neurological disease (n=10)", "value": 0.90}]}
